Some results are limits rather than exact numbers.

One test concerns the target T1, human KSP motor domain (KSP(367H)) (Homo sapiens, UniProt P52732).
T1 construct: were used to amplify the motor domain and the neck linker region; made in house; host or cells: E. coli BL21 (DE3), vector pRSETa
T1 sequence (P52732 18-359 limits assumed): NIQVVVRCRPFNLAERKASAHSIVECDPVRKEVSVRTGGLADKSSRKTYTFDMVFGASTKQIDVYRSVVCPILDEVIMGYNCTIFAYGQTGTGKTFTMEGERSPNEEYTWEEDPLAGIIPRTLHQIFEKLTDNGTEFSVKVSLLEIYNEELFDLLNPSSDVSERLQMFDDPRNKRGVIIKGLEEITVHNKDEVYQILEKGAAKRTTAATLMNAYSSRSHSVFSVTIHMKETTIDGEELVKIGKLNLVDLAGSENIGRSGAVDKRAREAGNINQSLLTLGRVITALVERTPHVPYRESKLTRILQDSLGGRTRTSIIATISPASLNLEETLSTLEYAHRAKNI
Briefly: Kinesin ATPase in vitro assay. The format is biochemical.
Details: not given
An excerpt: I. Kinesin ATPase In Vitro Assay
Cloning and Expression of Human Poly-Histidine Tagged KSP Motor Domain (KSP(367H))
Plasmids for the expression of the human KSP motor domain construct were cloned by PCR using a pBluescript full length human KSP construct (Blangy et al., Cell, vol.83, pp 1159-1169, 1995) as a template. The N-terminal primer 5′-[…] (SEQ.ID.NO.: 1) and the C-terminal primer 5′-[…] (SEQ.ID.NO.: 2) were used to amplify the motor domain and the neck linker region. The PCR products were digested with AseI and XhoI, ligated into the NdeI/XhoI digestion product of pRSETa (Invitrogen) and transformed into E. coli BL21 (DE3).
Cells were grown at 37° C. to an OD600 of 0.5. After cooling the culture to room temperature expression of KSP was induced with 100 μM IPTG and incubation was continued overnight. Cells were pelleted by centrifugation and washed once with ice-cold PBS. Pellets were flash-frozen and stored −80° C.
Cell pellets were thawed on ice and resuspended in lysis buffer (50 mM K-HEPES, pH 8.0, 250 mM KCl, 0.1% Tween, 10 mM imidazole, 0.5 mM Mg-ATP, 1 mM PMSF, 2 mM benzimidine, 1× complete protease inhibitor cocktail (Roche)). Cell suspensions were incubated with 1 mg/ml lysozyme and 5 mM β-mercaptoethanol on ice for 10 minutes, followed by sonication (3×30 sec). All subsequent procedures were performed at 4° C. Lysates were centrifuged at 40,000×g for 40 minutes. Supernatants were diluted and loaded onto an SP Sepharose column (Pharmacia, 5 ml cartridge) in buffer A (50 mM K-HEPES, pH 6.8, 1 mM MgCl2, 1 mM EGTA, […], 1 mM DTT) and eluted with a 0 to 750 mM KCl gradient in buffer A. Fractions containing KSP were pooled and incubated with Ni-NTA resin (Qiagen) for one hour. The resin was washed three times with buffer B (Lysis buffer minus PMSF and protease inhibitor cocktail), followed by three 15-minute incubations and washes with buffer B. Finally, the resin was incubated and washed for 15 minutes three times with buffer C (same as buffer B except for pH 6.0) and poured into a column. KSP was eluted with elution buffer (identical to buffer B except for 150 mM KCl and 250 mM imidazole). KSP-containing fractions were pooled, made 10% in sucrose, and stored at −80° C.
Microtubules are prepared from tubulin isolated from bovine brain. Purified tubulin (>97% MAP-free) at 1 mg/ml is polymerized at 37° C. in the presence of 10 μM paclitaxel, 1 mM DTT, 1 mM GTP in BRB80 buffer (80 mM K-PIPES, 1 mM EGTA, 1 mM MgCl2 at pH 6.8). The resulting microtubules are separated from non-polymerized tubulin by ultracentrifugation and removal of the supernatant. The pellet, containing the microtubules, is gently resuspended in 10 μM paclitaxel, 1 mM DTT, 50 μg/ml ampicillin, and 5 μg/ml chloramphenicol in BRB80.
The kinesin motor domain is incubated with microtubules, 1 mM ATP (1:1 MgCl2: Na-ATP), and compound at 23° C. in buffer containing 80 mM K-HEPES (pH 7.0), 1 mM EGTA, 1 mM DTT, 1 mM MgCl2, and 50 mM KCl. The reaction is terminated by a 2-10 fold dilution with a final buffer composition of 80 mM HEPES and 50 mM EDTA. Free phosphate from the ATP hydrolysis reaction is measured via a quinaldine red/ammonium molybdate assay by adding 150 μl of quench C buffer containing a 2:1 ratio of quench A:quench B. Quench A contains 0.1 mg/ml quinaldine red and 0.14% polyvinyl alcohol; quench B contains 12.3 mM ammonium molybdate tetrahydrate in 1.15 M sulfuric acid. The reaction is incubated for 10 minutes at 23° C., and the absorbance of the phospho-molybdate complex is measured at 540 nm.
With `CC(=O)N1N=C(c2ccccc2Cl)CC1c1cccc(O)c1` (stereo not drawn) [Compound 1-7, 3-[1-acetyl-3-(2-chlorophenyl)-4,5-dihydro-1H-pyrazol-5-yl]phenyl], the IC50 (as a rule, the concentration that inhibits the measured activity by half) is at most 50 µM.

The same test, now with this note: kinesin motor domain incubated with microtubules, 1 mM ATP and compound at 23° C.; free phosphate by quinaldine red/ammonium molybdate, 540 nm; read-out: IC50.
On to `CC(=O)N1N=C(c2cc(F)ccc2F)CC1c1cccc(O)c1` (racemic) [Compound 4-5, 3-[1-acetyl-3-(2,5-difluorophenyl)-4,5-dihydro-1H-pyrazol-5-yl]phenyl], for which the IC50 was at most 50 µM.
The same measure, in the same setting: then `CC(=O)N1N=C(c2cc(F)ccc2F)C(C)C1c1ccccc1` (single isomer, unassigned) [Compound 12-2, 1-acetyl-3-(2,5-difluorophenyl)-4-methyl-5-phenyl-4,5-dihydro-1H-pyrazole], with at most 50 µM.
With `CC(C)C(=O)N1N=C(c2ccccc2Cl)CC1c1cccc(O)c1` (stereo not drawn) [Compound 2-1, 3-[3-(2-chlorophenyl)-1-isobutyryl-4,5-dihydro-1H-pyrazol-5-yl]phenyl], the IC50 is at most 50 µM.
For `CC(=O)N1N=C(c2ccccc2Cl)CC1(C)c1cccc(O)c1` (stereo not drawn) [Compound 3-3, 3-[1-acetyl-3-(2-chlorophenyl)-5-methyl-4,5-dihydro-1H-pyrazol-5-yl]phenyl], the IC50 is at most 50 µM.
Same read-out and setting: then `O=C(N1CCNCC1)N1N=C(c2cc(F)ccc2F)CC1c1ccccc1` (stereo not drawn) [Compound 5-6, 1-{[3-(2,5-difluorophenyl)-5-phenyl-4,5-dihydro-1H-pyrazol-1-yl]carbonyl}piperazine], with at most 50 µM; and `CN1N=C(c2cc(F)ccc2F)CC1(C)c1ccccc1` (stereo not drawn) [Compound 6-2, 3-(2,5-difluorophenyl)-1,5-dimethyl-5-phenyl-4,5-dihydro-1H-pyrazole], with at most 50 µM; and `NCCCC1(c2ccccc2)CC(c2cc(F)ccc2F)=NN1C(=O)N1CCOCC1` (stereo not drawn) [Compound 7-7, 3-[3-(2,5-difluorophenyl)-1-(morpholin-4-ylcarbonyl)-5-phenyl-4,5-dihydro-1H-pyrazol-5-yl]propan-1-amine], with at most 50 µM.
Regarding `CS(=O)(=O)N1N=C(c2cc(F)ccc2F)CC1c1ccccc1` (stereo not drawn) [Compound 8-1, 3-(2,5-difluorophenyl)-1-(methylsulfonyl)-5-phenyl-4,5-dihydro-1H-pyrazole], the IC50 is at most 50 µM.
The same measure, in the same setting: the result for `CCNC(=O)N1N=C(c2cc(F)ccc2F)CC1(CCCN(C)C)c1ccccc1` (stereo not drawn) [Compound 9-2, 3-(2,5-difluorophenyl)-5-[3-(dimethylamino)propyl]-N-ethyl-5-phenyl-4,5-dihydro-1H-pyrazole-1-carboxamide] reads at most 50 µM; that for `CCNC(=O)N1N=C(c2cc(F)ccc2F)CC1(CCCNC(=O)c1ncc[nH]1)c1ccccc1` (stereo not drawn) [Compound 10-2, 3-(2,5-difluorophenyl)-N-ethyl-5-{3-[(1H-imidazol-2-ylcarbonyl)amino]propyl}-5-phenyl-4,5-dihydro-1H-pyrazole-1-carboxamide], at most 50 µM.
Turning to `CN(C)C(=O)N1N=C(c2cc(F)ccc2F)CC1(CCC(N)c1ccccc1)c1ccccc1` (stereo not drawn) [Compound 11-2, 5-(3-amino-3-phenylpropyl)-3-(2,5-difluorophenyl)-N,N-dimethyl-5-phenyl-4,5 dihydro-1H-pyrazole-1-carboxamide], the IC50 was at most 50 µM.

(Values after US7745639B2, “Mitotic kinesin inhibitors” (Merck & Co., Inc., priority 2002, dated 2010).)
